The values that follow come from article PMC4515785 (Journal of Medicinal Chemistry, 2015).

Marks after values point to notes of the source that are not given here.

For series [1], the system named is T. cruzi Tulahuen strain expressing β-galactosidase. Kind of series: Trypanosoma cruzi intracellular amastigote assay in 3T3 cells. It counts as cell-based. The following applies: for EC50: read-out: T. cruzi EC50; for EC50 / T. cruzi EC50: intracellular amastigotes in 3T3 cells, 96 h.
Another series relates to L. major promastigotes. Kind of series: Leishmania major promastigote assay. It counts as cell-based. The following applies: for EC50: read-out: L. major EC50 Promast.
The test system of another series is HepG2 cells. Kind of series: HepG2 toxicity assay. It counts as cell-based. The note with it: 48 h, MTT.
Another series relates to P. falciparum D6. Kind of series: Plasmodium falciparum SYBR Green fluorescence. It counts as cell-based. The following applies: D6, drug sensitive strain; for EC50: read-out: P. falciparum D6 EC50.
A short description of another series: plasma protein binding. It counts as in vitro ADME.
Series [2] is described as follows: Human liver microsomes intrinsic clearance. It counts as in vitro ADME.
The subject of the next series is T. brucei. The note with it: read-out: T. brucei EC50; previously reported quinazoline analogs; cited from earlier work.
Series [3] in a line: male rat hepatocytes intrinsic clearance. It counts as in vitro ADME.

The EC50 is the concentration at which the effect is half-maximal. On to “N-(3-Chloro-4-((3-fluorobenzyl)oxy)phenyl)-6-(4-((4-methylpiperazin-1-yl)sulfonyl)phenyl)thieno[3,2-d]pyrimidin-4-amine [compound 89]”, for which the EC50 is 5.5 µM in series [1], 3.4 µM in the series on L. major promastigotes and 0.021 µM in the series with P. falciparum D6. Also, the “HepG2 TC50” value in the series with HepG2 cells is greater than 15 µM.

For `CN1CCCN(S(=O)(=O)c2ccc(-c3ccc4ccnc(Nc5ccc(OCc6cccc(F)c6)c(Cl)c5)c4c3)cc2)CC1` [compound 59, N-(3-Chloro-4-((3-fluorobenzyl)oxy)phenyl)-7-(4-((4-methyl-1,4-diazepan-1-yl)sulfonyl)phenyl)isoquinolin-1-amine], the “fold less potent against T. cruzi” value in series [1] (compared with the quinazoline 4) is recorded as 10 fold.

Turning to “N-(4-(Benzyloxy)-3-chlorophenyl)-6-(4-(morpholinosulfonyl)phenyl)thieno[3,2-d]pyrimidin-4-amine [compound 87]”, the EC50 was greater than 50 µM in series [1], greater than 3 µM in the series with L. major promastigotes and 0.62 µM with P. falciparum D6. For the same compound, in the series with HepG2 cells, the “HepG2 TC50” value was greater than 5 µM.

As to “N-(3-Chloro-4-((3-fluorobenzyl)oxy)phenyl)-6-(3-morpholinophenyl)thieno[3,2-d]pyrimidin-4-amine [compound 85]”, the figures for the EC50 (in series [1]; in the series with L. major promastigotes; with P. falciparum D6) were greater than 50 µM, greater than 15 µM and 0.86 µM, respectively. In the series with HepG2 cells, the “HepG2 TC50” value was greater than 15 µM.

One may read the microsomal CLint as a measure of how fast metabolising enzymes remove a compound, apart from limits set by blood flow. A higher microsomal CLint goes with faster metabolism. With `CN1CCCN(S(=O)(=O)c2ccc(-c3ccc4ncc(C#N)c(Nc5ccc(OCc6cccc(F)c6)c(Cl)c5)c4c3)cc2)CC1` [compound 83, 4-((3-Chloro-4-((3-fluorobenzyl)oxy)phenyl)amino)-6-(4-((4-methyl-1,4-diazepan-1-yl)sulfonyl)phenyl)quinoline-3-carbonitrile], the “fold increase in T. cruzi potency over matched des-fluoro analog” value in series [1] (83 vs 84) came out at 10 fold. In series [1] (vs 4), the “fold improvement in T. cruzi potency over matched quinazoline analog 4” value is 5 fold. Moreover, the “plasma protein binding (% free)” value in “plasma protein binding” is less than 1 % free. The compound also showed a microsomal CLint in series [2] of 152 µL/min/mg.

On to `CN1CCN(S(=O)(=O)c2ccc(-c3ccc4ncnc(Nc5ccc(OCc6cccc(F)c6)c(Cl)c5)c4c3)cc2)CC1` [compound 5], for which the EC50 in the series on T. brucei was 0.53 µM.

On to `O=S(=O)(c1ccc(-c2ccc3nccc(Nc4ccc(OCc5ccccc5)c(Cl)c4)c3c2)cc1)N1CCOCC1` [compound 47, N-(4-(Benzyloxy)-3-chlorophenyl)-6-(4-(morpholinosulfonyl)phenyl)quinolin-4-amine], for which, in the series “plasma protein binding”, the “plasma protein binding (% free)” value is recorded as less than 1 % free. In addition, the microsomal CLint in series [2] turned out to be 78.9 µL/min/mg.

In the case of “N-(3-Chloro-4-((3-fluorobenzyl)oxy)phenyl)-6-(4-((4-methylpiperazin-1-yl)sulfonyl)phenyl)thieno[2,3-d]pyrimidin-4-amine [compound 90]”, the results for the EC50 (in series [1]; with L. major promastigotes; in the series on P. falciparum D6) were 48 µM, greater than 15 µM and 0.043 µM, respectively. For the same compound, the “HepG2 TC50” value in the series on HepG2 cells is greater than 15 µM.

The term hepatocyte CLint denotes the capacity of the preparation to metabolise the compound, expressed as a volume cleared per time. Read a high hepatocyte CLint as rapid turnover. Take `Fc1cccc(COc2ccc(Nc3ncnc4ccc(-c5cccc(N6CCOCC6)c5)cc34)cc2Cl)c1` [compound 1]: in series [3], the hepatocyte CLint came out at 44.5 µL/min/1e6 cells. Besides, the “plasma protein binding (% free)” value in “plasma protein binding” was less than 1 % free. In series [2], this compound returned a microsomal CLint of 63 µL/min/mg.

In the case of `CN1CCN(S(=O)(=O)c2ccc(-c3ccc4c(Nc5ccc(OCc6cccc(F)c6)c(Cl)c5)ccnc4c3)cc2)CC1` [compound 50, N-(3-Chloro-4-((3-fluorobenzyl)oxy)phenyl)-7-(4-((4-methylpiperazin-1-yl)sulfonyl)phenyl)quinolin-4-amine], the “T. cruzi EC50” value in series [1] was “submicromolar potency”. In “plasma protein binding”, the “plasma protein binding (% free)” value is less than 1 % free. The compound also yielded a microsomal CLint in series [2] of 143 µL/min/mg.

Turning to `CN1CCCN(S(=O)(=O)c2ccc(-c3ccc4c(Nc5ccc(OCc6cccc(F)c6)c(Cl)c5)ccnc4c3)cc2)CC1` [compound 52, N-(3-Chloro-4-((3-fluorobenzyl)oxy)phenyl)-7-(4-((4-methyl-1,4-diazepan-1-yl)sulfonyl)phenyl)quinolin-4-amine], the “T. cruzi EC50” value in series [1] is given as “submicromolar potency”.

For `CN1CCCN(S(=O)(=O)c2ccc(-c3ccc4c(Nc5ccc(OCc6cccc(F)c6)c(Cl)c5)nncc4c3)cc2)CC1` [compound 76, N-(3-Chloro-4-((3-fluorobenzyl)oxy)phenyl)-6-(4-((4-methyl-1,4-diazepan-1-yl)sulfonyl)phenyl)phthalazin-1-amine], the “P. falciparum D6 EC50” value in the series with P. falciparum D6 is given as “equipotent to 5”.

Consider “N-(3-Chloro-4-((3-fluorobenzyl)oxy)phenyl)-6-(4-((4-methyl-1,4-diazepan-1-yl)sulfonyl)phenyl)thieno[2,3-d]pyrimidin-4-amine [compound 92]”, for which the EC50 in series [1] was found to be 15 µM. Further, the “HepG2 TC50” value with HepG2 cells is greater than 15 µM.

For `O=S(=O)(c1ccc(-c2ccc3ccnc(Nc4ccc(OCc5ccccc5)c(Cl)c4)c3c2)cc1)N1CCOCC1` [compound 55, N-(4-(Benzyloxy)-3-chlorophenyl)-7-(4-(morpholinosulfonyl)phenyl)isoquinolin-1-amine], the “L. major EC50 Promast” value in the series with L. major promastigotes is given as “complete loss in activity”.

Turning to `CN1CCCN(S(=O)(=O)c2ccc(-c3ccc4nccc(Nc5ccc(OCc6cccc(F)c6)c(Cl)c5)c4c3)cc2)CC1` [compound 51, N-(3-Chloro-4-((3-fluorobenzyl)oxy)phenyl)-6-(4-((4-methyl-1,4-diazepan-1-yl)sulfonyl)phenyl)quinolin-4-amine], the “T. cruzi EC50” value in series [1] was “submicromolar potency”.

For the compound `O=S(=O)(c1ccc(-c2ccc3ncnc(Nc4ccc(OCc5ccccc5)c(Cl)c4)c3c2)cc1)N1CCOCC1` [compound 3], in series [1] (10 μM), the “T. cruzi % inh at 10 μM” value is “(9.5)* %”.

Regarding `CN1CCN(S(=O)(=O)c2ccc(-c3ccc4nccc(Nc5ccc(OCc6cccc(F)c6)c(Cl)c5)c4c3)cc2)CC1` [compound 49, N-(3-Chloro-4-((3-fluorobenzyl)oxy)phenyl)-6-(4-((4-methylpiperazin-1-yl)sulfonyl)phenyl)quinolin-4-amine], in the series on P. falciparum D6, the “P. falciparum D6 EC50” value was “complete loss in activity”.

“N-(3-Chloro-4-((3-fluorobenzyl)oxy)phenyl)-6-(3-morpholinophenyl)thieno[2,3-d]pyrimidin-4-amine [compound 86]”: the EC50 in series [1] was 2.2 µM; in the series on L. major promastigotes it was greater than 15 µM; in the series with P. falciparum D6, 0.52 µM. The “HepG2 TC50” value in the series on HepG2 cells was greater than 15 µM.

As for `CN1CCCN(S(=O)(=O)c2ccc(-c3ccc4c(Nc5ccc(OCc6cccc(F)c6)c(Cl)c5)cnnc4c3)cc2)CC1` [compound 68, N-(3-Chloro-4-((3-fluorobenzyl)oxy)phenyl)-7-(4-((4-methyl-1,4-diazepan-1-yl)sulfonyl)phenyl)cinnolin-4-amine], the “plasma protein binding (% free)” value in “plasma protein binding” is reported as less than 1 % free. The compound further registered a microsomal CLint in series [2] of 99.3 µL/min/mg.

For “N-(4-(Benzyloxy)-3-chlorophenyl)-6-(4-(morpholinosulfonyl)phenyl)thieno[2,3-d]pyrimidin-4-amine [compound 88]”, the concentration for a half-maximal effect (EC50) in series [1] was greater than 50 µM; in the series with L. major promastigotes it was greater than 15 µM; with P. falciparum D6 it was 0.22 µM. Besides, the “HepG2 TC50” value in the series with HepG2 cells is greater than 15 µM.

Consider `CN1CCCN(S(=O)(=O)c2ccc(-c3ccc4ncnc(Nc5ccc(OCc6cccc(F)c6)c(Cl)c5)c4c3)cc2)CC1` [compound 4], for which the half-maximal effective concentration (EC50) in the series with T. brucei is 0.81 µM.

Consider “N-(3-Chloro-4-((3-fluorobenzyl)oxy)phenyl)-6-(4-((4-methyl-1,4-diazepan-1-yl)sulfonyl)phenyl)thieno[3,2-d]pyrimidin-4-amine [compound 91]”, for which the EC50 in series [1] was greater than 50 µM. Further, in the series with HepG2 cells, the “HepG2 TC50” value was greater than 15 µM.
